This is an account of results in US12209087B2, “AKT1 modulators” (Alterome Therapeutics, Inc., priority 2022, dated 2025).

By IC50 is commonly meant the concentration needed to halve the response being measured.

Structures are written as SMILES.

T1 sequence (P31749 whole entry E17K): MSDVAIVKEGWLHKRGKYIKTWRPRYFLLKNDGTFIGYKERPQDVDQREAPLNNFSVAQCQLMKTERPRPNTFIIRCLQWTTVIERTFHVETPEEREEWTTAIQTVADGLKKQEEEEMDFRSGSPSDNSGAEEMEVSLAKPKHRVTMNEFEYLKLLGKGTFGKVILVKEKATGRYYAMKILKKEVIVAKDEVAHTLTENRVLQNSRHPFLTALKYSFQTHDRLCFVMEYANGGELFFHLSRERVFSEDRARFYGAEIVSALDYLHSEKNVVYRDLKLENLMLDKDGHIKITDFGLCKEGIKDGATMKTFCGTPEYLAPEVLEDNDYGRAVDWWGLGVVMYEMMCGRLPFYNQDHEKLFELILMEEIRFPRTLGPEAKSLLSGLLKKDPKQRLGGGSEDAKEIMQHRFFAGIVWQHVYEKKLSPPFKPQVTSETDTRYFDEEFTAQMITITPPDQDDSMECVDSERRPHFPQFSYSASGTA

One assay addresses T1, full length AKT E17K (Homo sapiens, UniProt P31749, E17K).
T1 construct: host or cells: HEK-293 (ATCC CRL-1573)
The assay can be described thus: NanoBRET Target Engagement (TE) Assay. It is filed as cell-based. The following applies: competitive displacement of tracer in cells, read-out: AKT1 E17K IC50. An outline of the steps: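 Compound and tracer incubated 2 h before luminescence at donor 450 nm and acceptor 600 nm, with extracellular signal inhibited. EC50 by sigmoidal variable-slope regression.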
(In general: Bioluminescence resonance energy transfer reports proximity on the nanometre scale.)
In the case of `N#Cc1nccc(NC2CCN(Cc3ccc(-n4c(-c5cccnc5N)nc5ccc(-c6cnn(C7CC7)n6)nc54)cc3)CC2)n1` [Example 615, 4-((1-(4-(2-(2-Aminopyridin-3-yl)-5-(2-cyclopropyl-2H-1,2,3-triazol-4-yl)-3H-imidazo[4,5-b]pyridin-3-yl)benzyl)piperidin-4-yl)amino)pyrimidine-2-carbonitrile], the IC50 was below 15 nM.

As to `N#Cc1cncc(-c2ccc3nc(-c4cccnc4N)n(-c4ccc(CN5CCC(Nc6ccnc(C#N)n6)CC5)cc4)c3n2)c1` [Example 430, 4-((1-(4-(2-(2-Aminopyridin-3-yl)-5-(5-cyanopyridin-3-yl)-3H-imidazo[4,5-b]pyridin-3-yl)benzyl)piperidin-4-yl)amino)pyrimidine-2-carbonitrile], the IC50 was below 15 nM.

Turning to `COc1cnc(-c2ccc3nc(-c4cccnc4N)n(-c4ccc(CN5CCC(Nc6ccnc(C#N)n6)CC5)cc4)c3n2)cn1` [Example 583, 4-((1-(4-(2-(2-Aminopyridin-3-yl)-5-(5-methoxypyrazin-2-yl)-3H-imidazo[4,5-b]pyridin-3-yl)benzyl)piperidin-4-yl)amino)pyrimidine-2-carbonitrile], the IC50 was below 15 nM.

With `N#Cc1nccc(NC2CCN(Cc3ccc(-n4c(-c5cccnc5N)nc5ccc(-c6ccncc6C#N)nc54)cc3)CC2)n1` [Example 400, 4-((1-(4-(2-(2-Aminopyridin-3-yl)-5-(3-cyanopyridin-4-yl)-3H-imidazo[4,5-b]pyridin-3-yl)benzyl)piperidin-4-yl)amino)pyrimidine-2-carbonitrile], the IC50 was below 15 nM.

In the case of `[2H]C1(Nc2ccnc(C#N)n2)CCN(Cc2ccc(-n3c(-c4cccnc4N)nc4cc(C)c(C)nc43)cc2)CC1` [Example 452, 4-((1-(4-(2-(2-Aminopyridin-3-yl)-5,6-dimethyl-3H-imidazo[4,5-b]pyridin-3-yl)benzyl)piperidin-4-yl-4-d)amino)pyrimidine-2-carbonitrile], the IC50 is below 15 nM.

With `N#Cc1nccc(NC2CCN(Cc3ccc(-n4c(-c5cccnc5N)nc5ccc(-c6cnccc6F)nc54)cc3)CC2)n1` [Example 595, 4-((1-(4-(2-(2-Aminopyridin-3-yl)-5-(4-fluoropyridin-3-yl)-3H-imidazo[4,5-b]pyridin-3-yl)benzyl)piperidin-4-yl)amino)pyrimidine-2-carbonitrile], the half-maximal inhibitory concentration (IC50) was below 15 nM.

Consider `Cc1nocc1-c1ccc2nc(-c3cccnc3N)n(-c3ccc(CN4CCC(Nc5ccnc(C#N)n5)CC4)cc3)c2n1` [Example 464, 4-((1-(4-(2-(2-Aminopyridin-3-yl)-5-(3-methylisoxazol-4-yl)-3H-imidazo[4,5-b]pyridin-3-yl)benzyl)piperidin-4-yl)amino)pyrimidine-2-carbonitrile], for which the concentration for half-maximal inhibition (IC50) was below 15 nM.

Consider `C[C@@H]1CN(Cc2ccc(-n3c(-c4cccnc4N)nc4ccc(-c5ccccc5)nc43)cc2)C[C@H](C)N1c1ccnc(C#N)n1` [Example 378, 4-((2S,6R)-4-(4-(2-(2-Aminopyridin-3-yl)-5-phenyl-3H-imidazo[4,5-b]pyridin-3-yl)benzyl)-2,6-dimethylpiperazin-1-yl)pyrimidine-2-carbonitrile], for which the IC50 fell in the range of 60 to 600 nM.

In the case of `N#CCn1ncc(-c2ccc3nc(-c4nccnc4N)n(-c4ccc(CN5CCC(Nc6ccnc(C#N)n6)CC5)cc4)c3n2)n1` [Example 632, 4-((1-(4-(2-(3-Aminopyrazin-2-yl)-5-(2-(cyanomethyl)-2H-1,2,3-triazol-4-yl)-3H-imidazo[4,5-b]pyridin-3-yl)benzyl)piperidin-4-yl)amino)pyrimidine-2-carbonitrile], the IC50 is below 15 nM.

Turning to `N#Cc1nccc(NC2CCN(Cc3ccc(-n4c(-c5cccnc5N)nc5ccccc54)cc3)CC2)n1` [Example 532, 4-((1-(4-(2-(2-Aminopyridin-3-yl)-1H-benzo[d]imidazol-1-yl)benzyl)piperidin-4-yl)amino)pyrimidine-2-carbonitrile], the half-inhibitory concentration (IC50) lay in the range of 60 to 600 nM.

For `N#Cc1nccc(NC2CCN(Cc3ccc(-n4c(-c5ccccc5N)nc5ccc(-c6ccc(F)cn6)nc54)cc3)CC2)n1` [Example 576, 4-((1-(4-(2-(2-Aminophenyl)-5-(5-fluoropyridin-2-yl)-3H-imidazo[4,5-b]pyridin-3-yl)benzyl)piperidin-4-yl)amino)pyrimidine-2-carbonitrile], the IC50 lay in the range of 15 to 60 nM.

For the compound `N#Cc1ccnc(NC2CCN(Cc3ccc(-n4c(-c5cccnc5N)nc5ccc(-c6cccc(Cl)c6)nc54)cc3)CC2)n1` [Example 372, 2-((1-(4-(2-(2-Aminopyridin-3-yl)-5-(3-chlorophenyl)-3H-imidazo[4,5-b]pyridin-3-yl)benzyl)piperidin-4-yl)amino)pyrimidine-4-carbonitrile], the IC50 fell in the range of 15 to 60 nM.

The assay is the same for the next values; noted with them: competitive tracer displacement in living cells, read-out: AKT1 E17K IC50.
For `N#Cc1cc(C(=O)NC2C3CCC2CN(Cc2ccc(-n4c(-c5cccnc5N)nc5ccc(-c6ccccc6)nc54)cc2)C3)ncn1` (centres unmarked) [Example 230, N-(3-(4-(2-(2-aminopyridin-3-yl)-5-phenyl-3H-imidazo[4,5-b]pyridin-3-yl)benzyl)-3-azabicyclo[3.2.1]octan-8-yl)-6-cyanopyrimidine-4-carboxamide], the IC50 lay in the range of 60 to 600 nM.

For `N#Cc1nc2cc(C(=O)NC3CCN(Cc4ccc(-n5c(-c6cccnc6N)nc6ccc(-c7ccccc7)nc65)cc4)CC3)ccc2s1` [Example 185, N-(1-(4-(2-(2-aminopyridin-3-yl)-5-phenyl-3H-imidazo[4,5-b]pyridin-3-yl)benzyl)piperidin-4-yl)-2-cyanobenzo[d]thiazole-5-carboxamide], the IC50 was below 15 nM.

With `N#Cc1cc(N2C3CCC2CN(Cc2ccc(-n4c(-c5cccnc5N)nc5ccc(-c6ccccc6)nc54)cc2)C3)ncn1` [Example 205, 6-(3-(4-(2-(2-Aminopyridin-3-yl)-5-phenyl-3H-imidazo[4,5-b]pyridin-3-yl)benzyl)-3,8-diazabicyclo[3.2.1]octan-8-yl)pyrimidine-4-carbonitrile], the IC50 fell in the range of 60 to 600 nM.

On to `N#Cc1nccc(NC2CCN(Cc3ccc(-n4c(-c5cccnc5N)nc5ccc(C6CCOCC6)nc54)cc3)CC2)n1` [Example 299, 4-((1-(4-(2-(2-Aminopyridin-3-yl)-5-(tetrahydro-2H-pyran-4-yl)-3H-imidazo[4,5-b]pyridin-3-yl)benzyl)piperidin-4-yl)amino)pyrimidine-2-carbonitrile], for which the IC50 was below 15 nM.

Take `N#Cc1ncnc(N2CCC3(CC2)CN(Cc2ccc(-n4c(-c5cccnc5N)nc5ccc(-c6ccccc6)nc54)cc2)C3)n1` [Example 268, 4-(2-(4-(2-(2-Aminopyridin-3-yl)-5-phenyl-3H-imidazo[4,5-b]pyridin-3-yl)benzyl)-2,7-diazaspiro[3.5]nonan-7-yl)-1,3,5-triazine-2-carbonitrile]: the IC50 is below 15 nM.

For `C[C@@H]1CN(Cc2ccc(-n3c(-c4cccnc4N)nc4ccc(-c5ccccc5)nc43)cc2)C[C@@H](C)N1c1cc(C#N)ncn1` [Example 197, 6-((2R,6R)-4-(4-(2-(2-aminopyridin-3-yl)-5-phenyl-3H-imidazo[4,5-b]pyridin-3-yl)benzyl)-2,6-dimethylpiperazin-1-yl)pyrimidine-4-carbonitrile], the IC50 was 60 to 600 nM.

With `N#Cc1ccnc(N2CCN(Cc3ccc(-n4c(-c5cccnc5N)nc5ccc(-c6ccc(F)cc6)nc54)cc3)CC2)n1` [Example 243, 2-(4-(4-(2-(2-Aminopyridin-3-yl)-5-(4-fluorophenyl)-3H-imidazo[4,5-b]pyridin-3-yl)benzyl)piperazin-1-yl)pyrimidine-4-carbonitrile], the 50% inhibitory concentration (IC50) lay within 60 to 600 nM.

As to `CC(=O)Nc1cccc(-c2ccc3nc(-c4cccnc4N)n(-c4ccc(CN5CCN(c6cc(C#N)ncn6)CC5)cc4)c3n2)c1` [Example 41, N-(3-(2-(2-Aminopyridin-3-yl)-3-(4-((4-(6-cyanopyrimidin-4-yl)piperazin-1-yl)methyl)phenyl)-3H-imidazo[4,5-b]pyridin-5-yl)phenyl)acetamide], the IC50 is below 15 nM.

For the compound `N#Cc1ccnc(N2CCN(Cc3ccc(-n4c(-c5cccnc5N)nc5ccc(-c6ccccc6F)nc54)cc3)CC2)n1` [Example 282, 2-(4-(4-(2-(2-Aminopyridin-3-yl)-5-(2-fluorophenyl)-3H-imidazo[4,5-b]pyridin-3-yl)benzyl)piperazin-1-yl)pyrimidine-4-carbonitrile], the half-maximal inhibitory concentration (IC50) lay in the range of 15 to 60 nM.

`N#Cc1cc(N2CCN(Cc3ccc(-n4c(-c5cccnc5N)nc5ccc(-c6ccccc6)nc54)cc3)CC23CC3)ncn1` [Example 200, 6-(7-(4-(2-(2-Aminopyridin-3-yl)-5-phenyl-3H-imidazo[4,5-b]pyridin-3-yl)benzyl)-4,7-diazaspiro[2.5]octan-4-yl)pyrimidine-4-carbonitrile]: the IC50 was in the range of 15 to 60 nM.

Regarding `CC(=O)Nc1cccc(-c2ccc3nc(-c4cccnc4N)n(-c4ccc(CN5CCN(c6nccc(C#N)n6)CC5)cc4)c3n2)c1` [Example 46, N-(3-(2-(2-Aminopyridin-3-yl)-3-(4-((4-(4-cyanopyrimidin-2-yl)piperazin-1-yl)methyl)phenyl)-3H-imidazo[4,5-b]pyridin-5-yl)phenyl)acetamide], the IC50 was below 15 nM.

Consider `N#Cc1ccnc(NC2CCN(Cc3ccc(-n4c(-c5cccnc5N)nc5ccc(-c6ccccc6Cl)nc54)cc3)CC2)n1` [Example 306, 2-((1-(4-(2-(2-Aminopyridin-3-yl)-5-(2-chlorophenyl)-3H-imidazo[4,5-b]pyridin-3-yl)benzyl)piperidin-4-yl)amino)pyrimidine-4-carbonitrile], for which the IC50 is 15 to 60 nM.

Turning to `N#Cc1ncccc1C(=O)N1CCN(Cc2ccc(-n3c(-c4cccnc4N)nc4cccnc43)cc2)CC1` [Example 153, 3-(4-(4-(2-(2-Aminopyridin-3-yl)-3H-imidazo[4,5-b]pyridin-3-yl)benzyl)piperazine-1-carbonyl)picolinonitrile], the IC50 is 600 to 10000 nM.

Turning to `N#Cc1ncnc(N2CCCC3(CCN(Cc4ccc(-n5c(-c6cccnc6N)nc6ccc(-c7ccccc7)nc65)cc4)CC3)C2)n1` [Example 254, 4-(9-(4-(2-(2-Aminopyridin-3-yl)-5-phenyl-3H-imidazo[4,5-b]pyridin-3-yl)benzyl)-2,9-diazaspiro[5.5]undecan-2-yl)-1,3,5-triazine-2-carbonitrile], the IC50 is below 15 nM.
